From ChEMBL document CHEMBL1201862, “PubChem BioAssay data set” (2004)
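Step 1: Grow cells in 96-well plates. Step 2: Expose to compound for 48 hours at 5 concentrations. Step 3: Interpolate endpoints linearly; if unreached, use highest concentration. The concentration for 50% growth inhibition is given as GI50.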 The source made the active and inactive calls. Rule as the data show it: active = GI50 up to about 1.1 µM and inactive = higher.

Experiments:
Assay in all cases: NCI tumour cell line growth inhibition, 48 h
EKVX = system: EKVX
BT-549 = system: BT-549
MOLT-4 = system: MOLT-4
SW-620 = system: SW-620
PC-3 = system: PC-3
HOP-62 = system: HOP-62
NCI-H226 = system: NCI-H226
COLO 205 = system: COLO 205
HT-29 = system: HT-29
SNB-75 = system: SNB-75
NCI-H522 = system: NCI-H522
SF-539 = system: SF-539
UACC-62 = system: UACC-62
ACHN = system: ACHN
U-251 = system: U-251
CAKI-1 = system: CAKI-1
DU-145 = system: DU-145
NCI-H460 = system: NCI-H460
Hs-578T = system: Hs-578T
OVCAR-8 = system: OVCAR-8
LOX IMVI = system: LOX IMVI
IGROV-1 = system: IGROV-1
SK-OV-3 = system: SK-OV-3
HCC 2998 = system: HCC 2998
SF-295 = system: SF-295
HCT-116 = system: HCT-116
Malme-3M = system: Malme-3M
HL-60 = system: HL-60
NCI/ADR-RES = system: NCI/ADR-RES
K562 = system: K562
MDA-MB-435 = system: MDA-MB-435
SNB-19 = system: SNB-19
A549 = system: A549
NCI-H23 = system: NCI-H23
MCF7 = system: MCF7
UACC-257 = system: UACC-257
RXF 393 = system: RXF 393
SN12C = system: SN12C
OVCAR-4 = system: OVCAR-4
MDA-MB-231 = system: MDA-MB-231
OVCAR-5 = system: OVCAR-5
CCRF-CEM = system: CCRF-CEM
SK-MEL-28 = system: SK-MEL-28
HCT-15 = system: HCT-15
SK-MEL-2 = system: SK-MEL-2
MDA-N = system: MDA-N
RPMI-8226 = system: RPMI-8226
UO-31 = system: UO-31
SR = system: SR
OVCAR-3 = system: OVCAR-3
T47D = system: T47D
SK-MEL-5 = system: SK-MEL-5
TK-10 = system: TK-10
SF-268 = system: SF-268
A498 = system: A498
M14 = system: M14
786-0 = system: 786-0
KM12 = system: KM12
HOP-92 = system: HOP-92

CCOC(=O)c1[nH]cc(C)c1-c1c[nH]c2ccccc12
GI50 (EKVX): > 63.8 µM (inactive) | GI50 (BT-549): 26.5 µM (inactive) | GI50 (MOLT-4): 4.11 µM (inactive) | GI50 (SW-620): 27.9 µM (inactive) | GI50 (PC-3): 14 µM (inactive) | GI50 (HOP-62): 35.3 µM (inactive) | GI50 (NCI-H226): 19.9 µM (inactive) | GI50 (COLO 205): 15.4 µM (inactive) | GI50 (HT-29): 21.6 µM (inactive) | GI50 (SNB-75): 28.1 µM (inactive) | GI50 (NCI-H522): 24.6 µM (inactive) | GI50 (SF-539): 22.8 µM (inactive) | GI50 (UACC-62): 14.4 µM (inactive) | GI50 (ACHN): 23 µM (inactive) | GI50 (U-251): 19.7 µM (inactive) | GI50 (CAKI-1): 37.1 µM (inactive) | GI50 (DU-145): 45 µM (inactive) | GI50 (NCI-H460): 12.1 µM (inactive) | GI50 (Hs-578T): 16.7 µM (inactive) | GI50 (OVCAR-8): 27.1 µM (inactive) | GI50 (LOX IMVI): 18 µM (inactive) | GI50 (IGROV-1): 33.2 µM (inactive) | GI50 (SK-OV-3): 32.3 µM (inactive) | GI50 (HCC 2998): 19.9 µM (inactive) | GI50 (SF-295): 29 µM (inactive) | GI50 (HCT-116): 6.93 µM (inactive) | GI50 (Malme-3M): 42.7 µM (inactive) | GI50 (HL-60): 6.44 µM (inactive) | GI50 (NCI/ADR-RES): 21.4 µM (inactive) | GI50 (K562): 6.04 µM (inactive) | GI50 (MDA-MB-435): 26 µM (inactive) | GI50 (SNB-19): 24.9 µM (inactive) | GI50 (A549): 28.8 µM (inactive) | GI50 (NCI-H23): 27.2 µM (inactive) | GI50 (MCF7): 22.3 µM (inactive) | GI50 (UACC-257): 26.2 µM (inactive) | GI50 (RXF 393): 30.1 µM (inactive) | GI50 (SN12C): 56 µM (inactive) | GI50 (OVCAR-4): 41.5 µM (inactive) | GI50 (MDA-MB-231): 9.57 µM (inactive) | GI50 (OVCAR-5): 39.7 µM (inactive) | GI50 (CCRF-CEM): 18.9 µM (inactive) | GI50 (SK-MEL-28): 39.4 µM (inactive) | GI50 (HCT-15): 8.81 µM | GI50 (SK-MEL-2): 29.4 µM (inactive) | GI50 (MDA-N): 24.9 µM (inactive) | GI50 (RPMI-8226): 7.35 µM (inactive) | GI50 (UO-31): 19.3 µM (inactive) | GI50 (SR): 1.82 µM (inactive) | GI50 (OVCAR-3): 26.7 µM (inactive) | GI50 (T47D): 36.3 µM (inactive) | GI50 (SK-MEL-5): 13.8 µM (inactive) | GI50 (TK-10): 19.5 µM (inactive) | GI50 (SF-268): 23.7 µM (inactive) | GI50 (A498): 59.6 µM (inactive) | GI50 (M14): 24.9 µM (inactive) | GI50 (786-0): 34.9 µM (inactive) | GI50 (KM12): 42.6 µM (inactive) | GI50 (HOP-92): 22.8 µM (inactive)

C=CCN1CN(C2CCCCC2)CSC1=S
GI50 (EKVX): 15.6 µM (inactive) | GI50 (BT-549): 7.69 µM (inactive) | GI50 (MOLT-4): 1.11 µM (active) | GI50 (SW-620): 0.733 µM (active) | GI50 (PC-3): 5.02 µM (inactive) | GI50 (HOP-62): 5.57 µM (inactive) | GI50 (NCI-H226): 14.6 µM (inactive) | GI50 (COLO 205): 3.32 µM (inactive) | GI50 (HT-29): 3.48 µM (inactive) | GI50 (SNB-75): 6.12 µM (inactive) | GI50 (NCI-H522): 2.8 µM (inactive) | GI50 (SF-539): 1.36 µM (inactive) | GI50 (UACC-62): 5.86 µM (inactive) | GI50 (ACHN): 4.02 µM (inactive) | GI50 (U-251): 3.59 µM (inactive) | GI50 (CAKI-1): 4.72 µM (inactive) | GI50 (DU-145): 2.23 µM (inactive) | GI50 (NCI-H460): 4.12 µM (inactive) | GI50 (Hs-578T): 4.94 µM (inactive) | GI50 (OVCAR-8): 4.06 µM (inactive) | GI50 (LOX IMVI): 3.9 µM (inactive) | GI50 (IGROV-1): 8.34 µM (inactive) | GI50 (SK-OV-3): 14.4 µM (inactive) | GI50 (HCC 2998): 8.17 µM (inactive) | GI50 (SF-295): 28.4 µM (inactive) | GI50 (HCT-116): 1.55 µM (inactive) | GI50 (Malme-3M): 3.16 µM (inactive) | GI50 (HL-60): 0.129 µM (active) | GI50 (NCI/ADR-RES): 8.83 µM (inactive) | GI50 (K562): 0.652 µM (active) | GI50 (MDA-MB-435): 0.944 µM (active) | GI50 (SNB-19): 16.9 µM (inactive) | GI50 (A549): 16.5 µM (inactive) | GI50 (NCI-H23): 8.28 µM (inactive) | GI50 (MCF7): 1.26 µM (inactive) | GI50 (UACC-257): 3.68 µM (inactive) | GI50 (RXF 393): 4.04 µM (inactive) | GI50 (SN12C): 6.84 µM (inactive) | GI50 (OVCAR-4): 12.8 µM (inactive) | GI50 (MDA-MB-231): 15.5 µM (inactive) | GI50 (OVCAR-5): 9.08 µM (inactive) | GI50 (CCRF-CEM): 0.818 µM (active) | GI50 (SK-MEL-28): 5.18 µM (inactive) | GI50 (HCT-15): 2.54 µM | GI50 (SK-MEL-2): 8.18 µM (inactive) | GI50 (MDA-N): 2.16 µM (inactive) | GI50 (RPMI-8226): 1.04 µM (active) | GI50 (UO-31): 8 µM (inactive) | GI50 (SR): 0.148 µM (active) | GI50 (OVCAR-3): 7.01 µM (inactive) | GI50 (T47D): 0.883 µM (active) | GI50 (SK-MEL-5): 2.68 µM (inactive) | GI50 (TK-10): 3.69 µM (inactive) | GI50 (SF-268): 2.32 µM (inactive) | GI50 (A498): 14.3 µM (inactive) | GI50 (M14): 2.77 µM (inactive) | GI50 (786-0): 3.27 µM (inactive) | GI50 (KM12): 3.19 µM (inactive) | GI50 (HOP-92): 5.18 µM (inactive)

C=CC(C)(C)N[C@@H](C(=O)N1CCC[C@H]1c1nc(-c2nc(C(=O)OCC=C(C)C)c(C)o2)c(C)o1)C(C)C
GI50 (EKVX): 32.3 µM (inactive) | GI50 (BT-549): 23.6 µM (inactive) | GI50 (MOLT-4): 15.2 µM (inactive) | GI50 (SW-620): 22.3 µM (inactive) | GI50 (PC-3): 25.5 µM (inactive) | GI50 (HOP-62): 21.6 µM (inactive) | GI50 (NCI-H226): 17 µM (inactive) | GI50 (COLO 205): 22.4 µM (inactive) | GI50 (HT-29): 19.1 µM (inactive) | GI50 (SNB-75): 33.8 µM (inactive) | GI50 (NCI-H522): 16.9 µM (inactive) | GI50 (SF-539): 16.3 µM (inactive) | GI50 (UACC-62): 18 µM (inactive) | GI50 (ACHN): 29.4 µM (inactive) | GI50 (U-251): 21.1 µM (inactive) | GI50 (CAKI-1): 35.5 µM (inactive) | GI50 (DU-145): 17.2 µM (inactive) | GI50 (NCI-H460): 24 µM (inactive) | GI50 (Hs-578T): 18 µM (inactive) | GI50 (OVCAR-8): 23.4 µM (inactive) | GI50 (LOX IMVI): 30.6 µM (inactive) | GI50 (IGROV-1): 28.8 µM (inactive) | GI50 (SK-OV-3): 27.1 µM (inactive) | GI50 (HCC 2998): 18.9 µM (inactive) | GI50 (SF-295): 20.1 µM (inactive) | GI50 (HCT-116): 17.8 µM (inactive) | GI50 (Malme-3M): 18.6 µM (inactive) | GI50 (HL-60): 20.6 µM (inactive) | GI50 (NCI/ADR-RES): 22.6 µM (inactive) | GI50 (K562): 36.5 µM (inactive) | GI50 (MDA-MB-435): 18.5 µM (inactive) | GI50 (SNB-19): 19.7 µM (inactive) | GI50 (A549): 29.9 µM (inactive) | GI50 (NCI-H23): 21.8 µM (inactive) | GI50 (MCF7): 23.4 µM (inactive) | GI50 (UACC-257): 20.5 µM (inactive) | GI50 (RXF 393): 30.7 µM (inactive) | GI50 (SN12C): 18.5 µM (inactive) | GI50 (OVCAR-4): 22.8 µM (inactive) | GI50 (MDA-MB-231): 21.3 µM (inactive) | GI50 (OVCAR-5): 35.9 µM (inactive) | GI50 (CCRF-CEM): 11.7 µM (inactive) | GI50 (SK-MEL-28): 18.5 µM (inactive) | GI50 (HCT-15): 22 µM | GI50 (SK-MEL-2): 34 µM (inactive) | GI50 (MDA-N): 18 µM (inactive) | GI50 (RPMI-8226): 18.7 µM (inactive) | GI50 (UO-31): 14.3 µM (inactive) | GI50 (SR): 18.1 µM (inactive) | GI50 (OVCAR-3): 23.1 µM (inactive) | GI50 (T47D): 21.3 µM (inactive) | GI50 (SK-MEL-5): 22.3 µM (inactive) | GI50 (TK-10): 24.3 µM (inactive) | GI50 (SF-268): 20.9 µM (inactive) | GI50 (A498): 19.7 µM (inactive) | GI50 (M14): 29 µM (inactive) | GI50 (786-0): 19.5 µM (inactive) | GI50 (KM12): 23 µM (inactive) | GI50 (HOP-92): 17.5 µM (inactive)
